Source: patent publication US20250215029A1 (Recludix Pharma, Inc., priority 2022, published 2025)
Where two headings read alike, the source gives them in different places.

Tests used:
pY641-STAT6 in PBMC = target: T1, pY641-STAT6 in PBMC (Homo sapiens, UniProt P42226); assay: MSD-pSTAT-PBMC Assay (pSTAT6, IL-4 stimulated); type: cell-based; details: compound 3 hrs, then 1 ng/mL IL-4 for 10 min
T1 construct: Cryopreserved Peripheral Blood Mononuclear Cells (PBMC) are from AllCells; host or cells: cryopreserved PBMC
T1 sequence (P42226 1-847): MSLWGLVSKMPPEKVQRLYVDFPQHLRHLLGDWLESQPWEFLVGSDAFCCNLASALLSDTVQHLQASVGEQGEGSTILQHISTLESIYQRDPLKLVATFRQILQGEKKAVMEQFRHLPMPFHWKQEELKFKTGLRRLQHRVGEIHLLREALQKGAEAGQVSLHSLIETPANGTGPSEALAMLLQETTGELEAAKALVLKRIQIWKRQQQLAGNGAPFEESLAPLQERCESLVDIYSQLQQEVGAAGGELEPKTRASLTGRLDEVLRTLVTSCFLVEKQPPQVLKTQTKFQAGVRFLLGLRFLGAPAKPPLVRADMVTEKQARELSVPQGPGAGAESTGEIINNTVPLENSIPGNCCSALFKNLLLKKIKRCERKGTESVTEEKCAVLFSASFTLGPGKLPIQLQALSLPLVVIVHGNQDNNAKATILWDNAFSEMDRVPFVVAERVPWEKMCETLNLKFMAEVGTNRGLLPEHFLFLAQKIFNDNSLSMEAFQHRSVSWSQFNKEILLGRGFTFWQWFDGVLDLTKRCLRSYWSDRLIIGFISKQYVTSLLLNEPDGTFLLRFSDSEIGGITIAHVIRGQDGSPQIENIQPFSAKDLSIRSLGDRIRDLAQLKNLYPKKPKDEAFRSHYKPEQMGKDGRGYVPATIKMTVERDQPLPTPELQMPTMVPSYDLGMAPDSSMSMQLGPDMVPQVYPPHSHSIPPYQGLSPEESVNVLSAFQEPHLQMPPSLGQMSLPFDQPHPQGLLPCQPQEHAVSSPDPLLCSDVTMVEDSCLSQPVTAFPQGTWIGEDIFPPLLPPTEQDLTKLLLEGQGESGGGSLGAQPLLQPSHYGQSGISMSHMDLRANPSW
How it was run: (§1)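 Cells are preincubated with compound for 3 hrs, then stimulated for 10 min, IL-4 at 1 ng/mL driving STAT6 phosphorylation and IL-6 at 10 ng/mL driving STAT3. Phospho-STAT in lysates is quantified by MSD immunoassay, and IC50 is fitted after subtracting unstimulated wells.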

pY705-STAT3 in PBMC = target: T2, pY705-STAT3 in PBMC (Homo sapiens, UniProt P40763); assay: MSD-pSTAT-PBMC Assay (pSTAT3, IL-6 stimulated); type: cell-based; details: PBMC, compound 3 hrs, then 10 ng/mL IL-6 for 10 min
T2 construct: Cryopreserved Peripheral Blood Mononuclear Cells (PBMC) are from AllCells; host or cells: cryopreserved PBMC
T2 sequence (P40763 whole entry): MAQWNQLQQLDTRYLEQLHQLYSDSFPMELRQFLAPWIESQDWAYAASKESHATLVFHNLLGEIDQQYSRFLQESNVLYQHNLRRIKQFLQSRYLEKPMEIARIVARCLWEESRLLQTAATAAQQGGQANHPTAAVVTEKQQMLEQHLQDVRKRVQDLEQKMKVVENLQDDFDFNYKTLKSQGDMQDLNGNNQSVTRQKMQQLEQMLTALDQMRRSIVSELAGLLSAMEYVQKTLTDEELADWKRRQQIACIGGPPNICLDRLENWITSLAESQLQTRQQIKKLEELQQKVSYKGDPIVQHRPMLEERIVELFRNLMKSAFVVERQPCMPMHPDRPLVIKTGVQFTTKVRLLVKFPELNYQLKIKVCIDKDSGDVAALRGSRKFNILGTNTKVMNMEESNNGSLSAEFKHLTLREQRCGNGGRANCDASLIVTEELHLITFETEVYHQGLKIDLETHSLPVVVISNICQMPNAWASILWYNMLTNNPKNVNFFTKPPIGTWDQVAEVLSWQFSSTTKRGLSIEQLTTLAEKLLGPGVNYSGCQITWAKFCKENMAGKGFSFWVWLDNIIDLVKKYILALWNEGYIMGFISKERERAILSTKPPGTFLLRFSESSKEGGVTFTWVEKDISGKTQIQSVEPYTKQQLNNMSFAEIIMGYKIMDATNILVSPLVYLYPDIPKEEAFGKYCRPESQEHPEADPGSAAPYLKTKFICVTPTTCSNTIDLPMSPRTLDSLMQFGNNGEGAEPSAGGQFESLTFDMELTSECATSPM
How it was run: as §1

[1] = PBMC, Table 115, read-out: STAT6
[2] = PBMC, Table 1114, read-out: pSTAT6

| SMILES | IC50 (pY641-STAT6 in PBMC; [1]) | IC50 (pY705-STAT3 in PBMC; Table 115, read-out: STAT3) | IC50 (pY705-STAT3 in PBMC; Table 1114, read-out: pSTAT3) | also measured |
| --- | --- | --- | --- | --- |
| CC(C)(C)C(=O)OCOP(=O)(OCOC(=O)C(C)(C)C)C(F)(F)c1ccc2ccc(C(=O)N[C@H]3CCCC[C@H]4CC[C@@H](C(=O)N5C[C@H](c6ccccc6)[C@@H](C#N)C5)N4C3=O)cc2c1 (relative stereo) [Compound 194, ((((7-(((3S,6S,10aS)-3-(rel-(trans)-3-cyano-4-phenyl-pyrrolidine-1-carbonyl)-5-oxodecahydro-pyrrolo[1,2-a]azocin-6-yl)carbamoyl)naphthalen-2-yl)difluoro-methyl)phos-phoryl)bis(oxy)) bis(methylene) bis(2,2-dimethyl-propanoate)] | – | – | 0.1 to 1 µM | IC50 (pY641-STAT6 in PBMC; [2]): < 0.1 µM |
| CC(C)(C)C(=O)SCCOP(=O)(Oc1ccc(C#N)cc1)C(F)(F)c1ccc2sc(C(=O)N[C@H]3CCCC[C@H]4CC[C@@H](C(=O)N5C[C@@H](C#N)[C@H](c6ccccc6)C5)N4C3=O)cc2c1 (single isomer, unassigned) [Compound 134, S-(2-((((2-(((3S,6S,10aS)-3-((3S,4R or 3R,4S)-3-cyano-4-phenylpyrrolidine-1-carbonyl)-5-oxodecahydro-pyrrolo[1,2-a]azocin-6-yl)carbamoyl)benzo[b]thiophen-5-yl)difluoromethyl)(4-cyanophenoxy)phosphoryl)oxy)ethyl)-2,2-dimethylpropane-thioate] | – | – | > 3 µM | IC50 (pY641-STAT6 in PBMC; pSTAT6, PBMC, Table 1114): 0.1 to 1 µM |
| CCCOC(=O)[C@H](C)NP(=O)(Oc1ccccc1)[C@@H](F)c1ccc2sc(C(=O)N[C@H]3CCCC[C@H]4CC[C@@H](C(=O)N5C[C@@H](C#N)[C@H](c6ccccc6)C5)N4C3=O)cc2c1 (single isomer, unassigned) [Compound 343] | – | > 3 µM | – | IC50 (pY641-STAT6 in PBMC; STAT6, PBMC, Table 115): < 0.1 µM |
| CCCOC(=O)[C@H](C)NP(=O)(Cc1ccc2sc(C(=O)N[C@H]3C[C@@H](C)C[C@H]4CC[C@@H](C(=O)N5CC(c6cnccc6C)C5)N4C3=O)cc2c1)Oc1ccccc1 (stereo partly drawn) [Compound 284, propyl (((2-(((3S,6S,8R,9aR)-8-methyl-3-(3-(4-methylpyridin-3-yl)azetidine-1-carbonyl)-5-oxooctahydro-1H-pyrrolo[1,2-a]azepin-6-yl)carbamoyl)benzo [b]thiophen-5-yl)methyl)(phenoxy)phosphoryl)-L-alaninate] | – | < 0.1 µM | – | IC50 (pY641-STAT6 in PBMC; STAT6, PBMC, Table 115): > 3 µM |
| CCCOC(=O)[C@H](C)NP(=O)(Cc1ccc2sc(C(=O)N[C@H]3CCC[C@H]4CC[C@@H](C(=O)N5CC(c6cnccc6N(C)C)C5)N4C3=O)cc2c1)Oc1ccccc1 (stereo partly drawn) [Compound 973, propyl (((2-(((3S,6S,9aS)-3-(3-(4-(dimethylamino)pyridin-3-yl)azetidine-1-carbonyl)-5-oxooctahydro-1H-pyrrolo[1,2-a]azepin-6-yl)carbamoyl)benzo [b]thiophen-5-yl)methyl)(phenoxy)phosphoryl)-L-alaninate] | – | < 0.1 µM | – | IC50 (pY641-STAT6 in PBMC; STAT6, PBMC, Table 115): > 3 µM |
| CC(C)(C)C(=O)SCCOP(=O)(OCCSC(=O)C(C)(C)C)C(F)(F)c1ccc2sc(C(=O)N[C@H]3CCCC[C@H]4CC[C@@H](C(=O)N5C[C@@H](C#N)[C@H](c6ccccc6)C5)N4C3=O)cc2c1 (single isomer, unassigned) [Compound 127, S,S′-(((((2-(((3S,6S,10aS)-3-((3S,4R or 3R,4S)-3-cyano-4-phenylpyrrolidine-1-carbonyl)-5-oxodecahydro-pyrrolo[1,2-a]azocin-6-yl)carbamoyl)benzo[b]thiophen-5-yl)difluoromethyl)phosphoryl)bis(oxy))bis(ethane-2,1-diyl))bis(2,2-dimethylpropane-thioate] | – | – | 1 to 3 µM | IC50 (pY641-STAT6 in PBMC; [2]): 0.1 to 1 µM |
| CC(C)OC(=O)[C@H](C)NP(=O)(Cc1ccc2sc(C(=O)N[C@H]3CCCC[C@H]4CC[C@@H](C(=O)N5C[C@H](c6cc[nH]c(=O)c6)[C@@H](C#N)C5)N4C3=O)cc2c1)Oc1ccccc1 (single isomer, unassigned) [Compound 197, isopropyl (((2-(((3S,6S,10aS)-3-((3R,4S or 3S,4R)-3-cyano-4-(2-oxo-1,2-dihydro-pyridin-4-yl)pyrrolidine-1-carbonyl)-5-oxodecahydro-pyrrolo[1,2-a]azocin-6-yl)carbamoyl)benzo[b]thiophen-5-yl)methyl) (phenoxy)phosphoryl)-L-alaninate] | – | – | > 3 µM | IC50 (pY641-STAT6 in PBMC; pSTAT6, PBMC, Table 1114): > 3 µM |

Second part, led by results:

| IC50 (pY641-STAT6 in PBMC; [1]) | IC50 (pY705-STAT3 in PBMC; Table 115, read-out: STAT3) | IC50 (pY705-STAT3 in PBMC; Table 1114, read-out: pSTAT3) | SMILES | also measured |
| --- | --- | --- | --- | --- |
| 0.1 to 1 µM | < 0.1 µM | – | CC(C)(C)C(=O)OCOP(=O)(OCOC(=O)C(C)(C)C)C(F)(F)c1ccc2sc(C(=O)N[C@H]3CCCC4CC[C@@H](C(=O)N5CC(N6CCOCC6)C5)N4C3=O)cc2c1 (stereo partly drawn) [Compound 249, (((difluoro(2-(((3S,6S)-3-(3-morpholinoazetidine-1-carbonyl)-5-oxooctahydro-1H-pyrrolo[1,2-a]azepin-6-yl)carbamoyl)benzo [b]thiophen-5-yl)methyl)phosphoryl)bis(oxy))bis (methylene) bis(2,2-dimethylpropanoate)] | – |
| – | – | 0.1 to 1 µM | CC(C)(C)C(=O)OCOP(=O)(OCOC(=O)C(C)(C)C)C(F)(F)c1ccc2sc(C(=O)N[C@H]3CCCCC4CC[C@@H](C(=O)N5C[C@H](C6CCCCC6)[C@@H](C#N)C5)N4C3=O)cc2c1 (relative stereo) [Compound 143, ((((2-(((3S,6S,10aS)-3-(rel-(trans)-3-cyano-4-cyclohexyl-pyrrolidine-1-carbonyl)-5-oxodecahydro-pyrrolo[1,2-a]azocin-6-yl)carbamoyl)benzo[b]thiophen-5-yl)difluoromethyl)phosphoryl)bis (oxy))bis (methylene) bis (2,2-dimethyl-propanaote)] | IC50 (pY641-STAT6 in PBMC; [2]): < 0.1 µM |
| 0.1 to 1 µM | 1 to 3 µM | – | COCCC(=O)SCCOP(=O)(OCCSC(=O)CCOC)C(F)(F)c1ccc2sc(C(=O)N[C@H]3CCCC[C@H]4CC[C@@H](C(=O)N5C[C@@H](C#N)[C@H](c6cc[nH]c(=O)c6)C5)N4C3=O)cc2c1 (single isomer, unassigned) [Compound 1083] | – |
| > 3 µM | < 0.1 µM | – | CC(C)(C)C(=O)SCCOP(=O)(OCCSC(=O)C(C)(C)C)C(F)(F)c1ccc2sc(C(=O)N[C@H]3CCC[C@H]4CC[C@@H](C(=O)N5CC(c6ncccn6)C5)N4C3=O)cc2c1 [Compound 962, S,S′-((((difluoro(2-(((3S,6S,9aS)-5-oxo-3-(3-(pyrimidin-2-yl)azetidine-1-carbonyl)octahydro-1H-pyrrolo[1,2-a]azepin-6-yl)carbamoyl)benzo [b]thiophen-5-yl)methyl)phosphoryl)bis(oxy))bis(ethane-2,1-diyl))bis(2,2-dimethyl-propanethioate)] | – |
| 1 to 3 µM | < 0.1 µM | – | CC(C)CC(=O)SCCOP(=O)(OCCSC(=O)CC(C)C)C(F)(F)c1ccc2sc(C(=O)N[C@H]3CCC[C@H]4CC[C@@H](C(=O)N5CC(c6ncccn6)C5)N4C3=O)cc2c1 [Compound 961, S,S′-((((difluoro(2-(((3S,6S,9aS)-5-oxo-3-(3-(pyrimidin-2-yl)azetidine-1-carbonyl)octahydro-1H-pyrrolo[1,2-a]azepin-6-yl)carbamoyl)benzo [b]thiophen-5-yl)methyl)phosphoryl)bis(oxy))bis(ethane-2,1-diyl)) bis(3-methylbutanethioate)] | – |
| 0.1 to 1 µM | < 0.1 µM | – | COCCC(=O)SCCOP(=O)(OCCSC(=O)CCOC)C(F)(F)c1ccc2sc(C(=O)N[C@H]3CCC[C@H]4CC[C@@H](C(=O)N5CC(c6cccnc6)C5)N4C3=O)cc2c1 [Compound 1106, S,S′-((((difluoro(2-(((3S,6S,9aS)-5-oxo-3-(3-(pyridin-3-yl)azetidine-1-carbonyl)octahydro-1H-pyrrolo[1,2-a]azepin-6-yl)carbamoyl)benzo [b]thiophen-5-yl)methyl)phosphoryl)bis(oxy))bis(ethane-2,1-diyl)) bis(3-methoxy-propanethioate)] | – |
